Assay results taken from the supplement of paper PMC11208160.

Experiment: recombinant UMI read abundance after kanamycin selection (control-corrected) (log10(CPM+1)); higher = more efficient recombination; extreme values may be limits of the assay; sequences stand for … in AGTGCAGAGAAAATCGGCCAGTTTTCTCTGCCTGCAGTCCGCATGCCGTGGGACCCCTTGGGTTCTAACCTGTTGCCTAGATTTATGCAGCGGACTGCCTTTCTCCCAAAGTGATAAACCGG…AGGTTGGTTTCACT; site = the 11-nt donor
In short: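 Pooled Escherichia coli screen of donor and donor-binding-loop pairs for the IS621 bridge recombinase. Each pair sits with a 12-nt UMI on a plasmid carrying a promoterless kanamycin gene. The library was co-electroporated with a target plasmid encoding a fixed target and T7-inducible recombinase, then plated with IPTG (0.07 mM) plus kanamycin, or unselected, each in two replicates. Recombinant UMIs were PCR-amplified across the donor–target junction and sequenced. Counts became CPM, averaged over replicates, scaled by control-derived factors and reported as log10(CPM+1).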
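Also: IS621 bridge recombinase in Escherichia coli cells against a fixed T5 target plasmid.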

Sequence: CTAATCTCATGGACCGGTTTTCCCGGTAATCCGTATTTGAC (site CTAGTATCTGT)
- recombinant UMI read abundance (log10): 0

Sequence: CTAATTACATGGACCGGTTTTCCCGGTAATCCGTATTTGCA (site CTAATTACTTG)
- recombinant UMI read abundance (log10): 2.07

Sequence: CTACAAACATGGACCGGTTTTCCCGGTAATCCGTATTTGGA (site CTACAAACTTC)
- recombinant UMI read abundance (log10): 1.28

Sequence: CTACAAACATGGACCGGTTTTCCCGGTAATCCGTATTTGGA (site CTACCAACTTC)
- recombinant UMI read abundance (log10): 0.0174

Sequence: CTACAAACATGGACCGGTTTTCCCGGTAATCCGTATTTGGA (site CTACGAACTTC)
- recombinant UMI read abundance (log10): 0.0102

Sequence: CTACAAACATGGACCGGTTTTCCCGGTAATCCGTATTTGGA (site CTACTAACTTC)
- recombinant UMI read abundance (log10): 0.313

Sequence: CTACCATCATGGACCGGTTTTCCCGGTAATCCGTATTTGGT (site CTACCATCTAC)
- recombinant UMI read abundance (log10): 0.00462

Sequence: CTACGAACATGGACCGGTTTTCCCGGTAATCCGTATTTGGA (site CTACAAACTTC)
- recombinant UMI read abundance (log10): 1.46

Sequence: CTACGAACATGGACCGGTTTTCCCGGTAATCCGTATTTGGA (site CTACCAACTTC)
- recombinant UMI read abundance (log10): 0.0142

Sequence: CTACGAACATGGACCGGTTTTCCCGGTAATCCGTATTTGGA (site CTACGAACTTC)
- recombinant UMI read abundance (log10): 1.91

Sequence: CTACGAACATGGACCGGTTTTCCCGGTAATCCGTATTTGGA (site CTACTAACTTC)
- recombinant UMI read abundance (log10): 0.113

Sequence: CTACTAACATGGACCGGTTTTCCCGGTAATCCGTATTTGGC (site CTACTAACTAC)
- recombinant UMI read abundance (log10): 0.561

Sequence: CTACTAACATGGACCGGTTTTCCCGGTAATCCGTATTTGGC (site CTACTAACTCC)
- recombinant UMI read abundance (log10): 0.31

Sequence: CTACTAACATGGACCGGTTTTCCCGGTAATCCGTATTTGGC (site CTACTAACTGC)
- recombinant UMI read abundance (log10): 2.51

Sequence: CTACTAACATGGACCGGTTTTCCCGGTAATCCGTATTTGGC (site CTACTAACTTC)
- recombinant UMI read abundance (log10): 1.31

Sequence: CTACTAACATGGACCGGTTTTCCCGGTAATCCGTATTTGGG (site CTACTAACTAC)
- recombinant UMI read abundance (log10): 0.0214

Sequence: CTACTAACATGGACCGGTTTTCCCGGTAATCCGTATTTGGG (site CTACTAACTCC)
- recombinant UMI read abundance (log10): 0.54

Sequence: CTACTAACATGGACCGGTTTTCCCGGTAATCCGTATTTGGG (site CTACTAACTGC)
- recombinant UMI read abundance (log10): 0.0111

Sequence: CTACTAACATGGACCGGTTTTCCCGGTAATCCGTATTTGGG (site CTACTAACTTC)
- recombinant UMI read abundance (log10): 0.0179

Sequence: CTACTATCATGGACCGGTTTTCCCGGTAATCCGTATTTGCC (site CTACTATCTGG)
- recombinant UMI read abundance (log10): 2.95

Sequence: CTACTATCATGGACCGGTTTTCCCGGTAATCCGTATTTGCC (site CTAGTATCTGT)
- recombinant UMI read abundance (log10): 0

Sequence: CTACTATCATGGACCGGTTTTCCCGGTAATCCGTATTTGGA (site CTACTAACTTC)
- recombinant UMI read abundance (log10): 0.127

Sequence: CTACTATCATGGACCGGTTTTCCCGGTAATCCGTATTTGGA (site CTACTACCTTC)
- recombinant UMI read abundance (log10): 0.00618

Sequence: CTACTATCATGGACCGGTTTTCCCGGTAATCCGTATTTGGA (site CTACTAGCTTC)
- recombinant UMI read abundance (log10): 0.0148

Sequence: CTACTATCATGGACCGGTTTTCCCGGTAATCCGTATTTGGA (site CTACTATCTTC)
- recombinant UMI read abundance (log10): 2.71

Sequence: CTAGAATCATGGACCGGTTTTCCCGGTAATCCGTATTTGTC (site CTAGAATCTGA)
- recombinant UMI read abundance (log10): 2.71

Sequence: CTAGAATCATGGACCGGTTTTCCCGGTAATCCGTATTTGTC (site CTAGTATCTGT)
- recombinant UMI read abundance (log10): 0.307

Sequence: CTAGACTCATGGACCGGTTTTCCCGGTAATCCGTATTTGAC (site CTAGACTCTGT)
- recombinant UMI read abundance (log10): 3.29

Sequence: CTAGACTCATGGACCGGTTTTCCCGGTAATCCGTATTTGAC (site CTAGTATCTGT)
- recombinant UMI read abundance (log10): 0

Sequence: CTAGACTCATGGACCGGTTTTCCCGGTAATCCGTATTTGCT (site CTAGACTCTAG)
- recombinant UMI read abundance (log10): 3.32

Sequence: CTAGAGACATGGACCGGTTTTCCCGGTAATCCGTATTTGTC (site CTAGAGACTGA)
- recombinant UMI read abundance (log10): 2.28

Sequence: CTAGCATCATGGACCGGTTTTCCCGGTAATCCGTATTTGAC (site CTAGAATCTGT)
- recombinant UMI read abundance (log10): 0.337

Sequence: CTAGCATCATGGACCGGTTTTCCCGGTAATCCGTATTTGAC (site CTAGCATCTGT)
- recombinant UMI read abundance (log10): 3.04

Sequence: CTAGCATCATGGACCGGTTTTCCCGGTAATCCGTATTTGAC (site CTAGGATCTGT)
- recombinant UMI read abundance (log10): 0.773

Sequence: CTAGCATCATGGACCGGTTTTCCCGGTAATCCGTATTTGAC (site CTAGTATCTGT)
- recombinant UMI read abundance (log10): 2.13

Sequence: CTAGCGACATGGACCGGTTTTCCCGGTAATCCGTATTTGCC (site CTAGCGACTGG)
- recombinant UMI read abundance (log10): 3.09

Sequence: CTAGCTTCATGGACCGGTTTTCCCGGTAATCCGTATTTGAC (site CTAGCTTCTGT)
- recombinant UMI read abundance (log10): 2.18

Sequence: CTAGCTTCATGGACCGGTTTTCCCGGTAATCCGTATTTGAC (site CTAGTATCTGT)
- recombinant UMI read abundance (log10): 0

Sequence: CTAGGACCATGGACCGGTTTTCCCGGTAATCCGTATTTGAC (site CTAGGACCTGT)
- recombinant UMI read abundance (log10): 0

Sequence: CTAGGACCATGGACCGGTTTTCCCGGTAATCCGTATTTGAC (site CTAGTATCTGT)
- recombinant UMI read abundance (log10): 0.00955

Sequence: CTAGGATCATGGACCGGTTTTCCCGGTAATCCGTATTTGAT (site CTAGGATCTAT)
- recombinant UMI read abundance (log10): 1.95

Sequence: CTAGGATCATGGACCGGTTTTCCCGGTAATCCGTATTTGAT (site CTAGTATCTGT)
- recombinant UMI read abundance (log10): 0.00727

Sequence: CTAGGATCATGGACCGGTTTTCCCGGTAATCCGTATTTGGC (site CTAGGATCTGC)
- recombinant UMI read abundance (log10): 2.55

Sequence: CTAGGATCATGGACCGGTTTTCCCGGTAATCCGTATTTGGC (site CTAGTATCTGT)
- recombinant UMI read abundance (log10): 0.606

Sequence: CTAGGGTCATGGACCGGTTTTCCCGGTAATCCGTATTTGAC (site CTAGGGTCTGT)
- recombinant UMI read abundance (log10): 1.41

Sequence: CTAGGGTCATGGACCGGTTTTCCCGGTAATCCGTATTTGAC (site CTAGTATCTGT)
- recombinant UMI read abundance (log10): 1.43

Sequence: CTAGGTTCATGGACCGGTTTTCCCGGTAATCCGTATTTGCG (site CTAGGTTCTCG)
- recombinant UMI read abundance (log10): 2.47

Sequence: CTAGTAGCATGGACCGGTTTTCCCGGTAATCCGTATTTGAA (site CTAGTAGCTTT)
- recombinant UMI read abundance (log10): 2.15

Sequence: CTAGTAGCATGGACCGGTTTTCCCGGTAATCCGTATTTGAA (site CTAGTATCTGT)
- recombinant UMI read abundance (log10): 0

Sequence: CTAGTATCATGGACCGGTTTTCCCGGTAATCCGTATTTGAC (site ACAGTATCTGT)
- recombinant UMI read abundance (log10): 0.654

Sequence: CTAGTATCATGGACCGGTTTTCCCGGTAATCCGTATTTGAC (site ATACTATCTGT)
- recombinant UMI read abundance (log10): 0.00668

Sequence: CTAGTATCATGGACCGGTTTTCCCGGTAATCCGTATTTGAC (site ATAGCATCTGT)
- recombinant UMI read abundance (log10): 0

Sequence: CTAGTATCATGGACCGGTTTTCCCGGTAATCCGTATTTGAC (site ATAGTAGCTGT)
- recombinant UMI read abundance (log10): 0.00849

Sequence: CTAGTATCATGGACCGGTTTTCCCGGTAATCCGTATTTGAC (site ATAGTATCTGG)
- recombinant UMI read abundance (log10): 0.298

Sequence: CTAGTATCATGGACCGGTTTTCCCGGTAATCCGTATTTGAC (site ATAGTATCTGT)
- recombinant UMI read abundance (log10): 0.432

Sequence: CTAGTATCATGGACCGGTTTTCCCGGTAATCCGTATTTGAC (site ATAGTATCTTT)
- recombinant UMI read abundance (log10): 0.00657

Sequence: CTAGTATCATGGACCGGTTTTCCCGGTAATCCGTATTTGAC (site ATAGTTTCTGT)
- recombinant UMI read abundance (log10): 0

Sequence: CTAGTATCATGGACCGGTTTTCCCGGTAATCCGTATTTGAC (site ATGGTATCTGT)
- recombinant UMI read abundance (log10): 0.837

Sequence: CTAGTATCATGGACCGGTTTTCCCGGTAATCCGTATTTGAC (site CAAATATCTGT)
- recombinant UMI read abundance (log10): 0

Sequence: CTAGTATCATGGACCGGTTTTCCCGGTAATCCGTATTTGAC (site CAAGAATCTGT)
- recombinant UMI read abundance (log10): 0

Sequence: CTAGTATCATGGACCGGTTTTCCCGGTAATCCGTATTTGAC (site CAAGTAACTGT)
- recombinant UMI read abundance (log10): 0.0563

Sequence: CTAGTATCATGGACCGGTTTTCCCGGTAATCCGTATTTGAC (site CAAGTATCTCT)
- recombinant UMI read abundance (log10): 0.473

Sequence: CTAGTATCATGGACCGGTTTTCCCGGTAATCCGTATTTGAC (site CAAGTATCTGA)
- recombinant UMI read abundance (log10): 0

Sequence: CTAGTATCATGGACCGGTTTTCCCGGTAATCCGTATTTGAC (site CAAGTATCTGT)
- recombinant UMI read abundance (log10): 2.47

Sequence: CTAGTATCATGGACCGGTTTTCCCGGTAATCCGTATTTGAC (site CAAGTCTCTGT)
- recombinant UMI read abundance (log10): 0

Sequence: CTAGTATCATGGACCGGTTTTCCCGGTAATCCGTATTTGAC (site CACGTATCTGT)
- recombinant UMI read abundance (log10): 0.0166

Sequence: CTAGTATCATGGACCGGTTTTCCCGGTAATCCGTATTTGAC (site CCACTATCTGT)
- recombinant UMI read abundance (log10): 0

Sequence: CTAGTATCATGGACCGGTTTTCCCGGTAATCCGTATTTGAC (site CCAGCATCTGT)
- recombinant UMI read abundance (log10): 0.00896
